Experimental data as given in patent publication US20210052537A1, “COLITIS AMELIORATING AGENT” (ASTA PHARMACEUTICALS, CO., LTD., priority 2018, published 2021).
Several values for one entry are separate records, joined by “and”; a condition that tells them apart may be missing. Equal values may be shown once.

System: Oxa-induced colitis
Experiment: Oxazolone (Oxa)-induced colitis mouse model
Assay type: in vivo
Details: for Colon length / Colon weight (wet weight per length): 6 days, mean ± SD
Excerpt: In this Example, mouse models to which oxazolone (4-ethoxymethylene-2-phenyl-2-oxazolin-5-on, hereinafter, Oxa) is used will be described as colitis models. When Oxa was first applied to skin, subsequently administered enterally after a certain period of time, an experimental ulcerative colitis model similar to human ulcerative colitis in terms of not only symptoms such as suppression of body weight increase, blood in stools, and anemia and formation of colon erosion but also immune cells was built (Non-Patent Literature 4). A suppression effect of Compound X on colitis in such a model as the test model showing pathological conditions more similar to human ulcerative colitis was examined. For the examination items, the length and weight of the colon were examined as changes in colon properties are widely known to occur also in this model.
For treatment, Balb/c, male mice were purchased from CHARLES RIVER LABORATORIES JAPAN, INC. in accordance with previous literature (Non-Patent Literature 5) and 8-week old mice with no abnormal general conditions during quarantine and acclimation period were used for the experiment. After acclimation, the animals were divided in such a way as to be 1 mouse per cage. Oxa used in the experiment was purchased from Sigma.
Fur at back of the neck was shaved in an area of 1.5×1.5 cm under anesthesia, and 150 μL (a 100% ethanol solution) of 3% (wt/vol) Oxa was added using a pipette and applied between the shoulders to sensitize (Day 1). The mice were kept under such a typical breeding environment, fasted for 16 hours from Day 7 (water supply was continued), and subsequently on Day 8 100 μL of a solution of 1% (wt/vol) Oxa in 50% ethanol was transanally administered into the rectum (3.5 cm from the anus) using a catheter under anesthesia. Hereinafter, the above treatment is described as Oxa treatment. After treatment, typical feeding breeding was carried out.
Starting on the day following intrarectal administration of Oxa, test substances were orally administered (once daily, for 6 days). 5-Aminosalicylic acid (hereinafter 5-ASA, Tokyo Chemical Industry, Co., Ltd.) and prednisolone (hereinafter, PSL, Sigma), which are anti-inflammatory agents used for treating ulcerative colitis, were used as positive controls for the test. After group division, each of the test substances of Table 6 was suspended in a solution of 0.5% sodium carboxymethyl cellulose (hereinafter, CMC, Nacalai Tesque Inc.) in such a way as to be each treatment of Table 6 and orally administered once daily. […] These control groups, Groups 1 and 2, were orally administered, as the test substance, with the 0.5% CMC solution which was used as the medium.
The test started with 6 mice in Group No. 1 and 9 mice each in Group Nos. 2 to 6. After the treatment started, death of animals in Group Nos. 2 to 6 due to the cause considered enteritis from Oxa treatment was observed and thus 6 mice in Group Nos. 1 and 3, and 5 mice in Group Nos. 2 and 6, and 7 mice in Group Nos. 4 and 5 were finally used for analysis.
It is generally acknowledged as a known fact that Oxa treatment causes colon tissue changes such as the length of colon is shortened while the weight increases. For evaluating the therapeutic effect of Compound X, the length and weight of the colon were measured. The mice were euthanized under anesthesia on day 7 of Oxa treatment and dissected to remove the colon. The removed colon was quickly measured for a length in a relaxed state. Subsequently, feces in the intestinal tract were removed and sufficiently washed with phosphate buffered saline (Wako Pure Chemical Industries, Ltd.) and measured for a wet weight.

[1] = Group Nos. 3 to 6 of Table 7, in words
[2] = Oxa treatment + high dose 10 mg/kg/day oral, day 7, 10 mg/kg/day

Compound: CC1=C(/C=C/C(C)=C/C=C/C(C)=C/C=C/C=C(C)/C=C/C=C(C)/C=C/C2=C(C)C(=O)[C@@H](OC(=O)CNC(=O)NCCCC(=O)O)CC2(C)C)C(C)(C)C[C@H](OC(=O)CNC(=O)NCCCC(=O)O)C1=O.NCCCC[C@H](N)C(=O)O.NCCCC[C@H](N)C(=O)O [Compound X, 4-(3-{4-[18-(4(S)-[3-(3-Carboxypropyl)ureidoacetoxy]-2,6,6-trimethyl-3-oxocyclohexa-1-enyl)-3,7,12,16-tetramethyloctadeca-1(E),3(E),5(E),7(E),9(E),11(E),13(E),15(E),17(E)-nonaenyl]-3,5,5-trimethyl-2-oxocyclohex-3-enyl-1(S)-oxycarbonylmethyl}ureido)butyric acid dilysine salt]
- Colon length compared with Vehicle group [1]: longer length of the colon than Vehicle group
- Colon wet weight compared with Vehicle group [1]: suppressed weight increases compared with Vehicle group
- Colon length [2]: 8.74 cm and 8.74 ± 0.48 cm
- Colon weight (wet weight per length) [2]: 2.80 mg/mm and 2.80 ± 0.43 mg/mm
- Colon length (Oxa treatment + low dose 3 mg/kg/day oral, Balb/c mice, day 7 of Oxa treatment, 3 mg/kg/day): 8.72 cm and 8.72 ± 0.50 cm
- Colon weight (wet weight per length) (Oxa treatment + low dose 3 mg/kg/day oral, day 7, 3 mg/kg/day): 3.44 mg/mm and 3.44 ± 0.45 mg/mm
